Experimental data reported in patent US8796256B2 (Janssen Pharmaceutica NV, priority 2010, dated 2014).

Target: T1, ERR1 (also known as ERR-α or ERR-1) (Homo sapiens, UniProt P11474)
T1 sequence (P11474 193-421 limits assumed): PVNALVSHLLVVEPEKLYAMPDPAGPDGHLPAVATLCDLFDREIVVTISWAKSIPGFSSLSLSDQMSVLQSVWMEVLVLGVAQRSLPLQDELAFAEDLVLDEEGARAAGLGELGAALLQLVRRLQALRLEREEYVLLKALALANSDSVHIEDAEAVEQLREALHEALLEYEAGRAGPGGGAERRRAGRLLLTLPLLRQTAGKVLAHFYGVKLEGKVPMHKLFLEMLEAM
Test: TR-FRET assay (disruption of co-activator peptide binding to ERR1 LBD)
Format: biochemical
Settings: 6 nM 6His-ERR1LBD, 6 nM GST-SRC-2 peptide; average of 3 independent experiments
Outline: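 Homogeneous TR-FRET measuring displacement of GST-hSRC2 co-activator peptide (6 nM) from His-tagged ERR1 LBD (6 nM), detected with α-GST Eu cryptate (30 nM) and α-His-XL665 (7.5 nM). Buffer 25 mM Tris pH 8, 2.5 mM Hepes, 20 mM KCl, 1 mM DTT, 0.05 mg/mL delipidated BSA; equilibration 4-18 h at 25° C. Hyperbolic dose-response fit, mean of 3 experiments.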

`O=C1S/C(=C\c2ccc3c(cnn3Cc3ccc(Cl)cc3C(F)(F)F)c2)C(=O)N1CCC1CCNCC1` [Compound 164, (5Z)-5-({1-[4-Chloro-2-(trifluoromethyl)benzyl]-1H-indazol-5-yl}methylidene)-3-(2-piperidin-4-ylethyl)-1,3-thiazolidine-2,4-dione] gave an EC50 of 47 nM.

With `NS(=O)(=O)CN1C(=O)S/C(=C\c2ccc3c(cnn3Cc3ccc(Cl)cc3C(F)(F)F)c2)C1=O` [Compound 165, 1-[(5Z)-5-({1-[4-Chloro-2-(trifluoromethyl)benzyl]-1H-indazol-5-yl}methylidene)-2,4-dioxo-1,3-thiazolidin-3-yl]methanesulfonamide] the EC50 was 34 nM.

Work on `COC[C@@H](N)CN1C(=O)S/C(=C\c2ccc3c(cnn3Cc3ccc(Cl)cc3C(F)(F)F)c2)C1=O` [Compound 168, (5Z)-3-[(2S)-2-Amino-3-methoxypropyl]-5-({1-[4-chloro-2-(trifluoromethyl)benzyl]-1H-indazol-5-yl}methylidene)-1,3-thiazolidine-2,4-dione] yielded an EC50 of 29 nM.

Work on `NC(CN1C(=O)S/C(=C\c2ccc3c(cnn3Cc3ccc(Cl)cc3C(F)(F)F)c2)C1=O)C(F)(F)F` (stereo not shown) [Compound 169, (5Z)-3-(2-Amino-3,3,3-trifluoropropyl)-5-({1-[4-chloro-2-(trifluoromethyl)benzyl]-1H-indazol-5-yl}methylidene)-1,3-thiazolidine-2,4-dione] yielded an EC50 of 32 nM.

Work on `COC(=O)CN1C(=O)S/C(=C\c2ccc3c(cnn3[C@H]3CCc4cc(Cl)ccc43)c2)C1=O` [Compound 171, Methyl [(5Z)-5-({1-[(1S)-5-chloro-2,3-dihydro-1H-inden-1-yl]-1H-indazol-5-yl}methylidene)-2,4-dioxo-1,3-thiazolidin-3-yl]acetate] yielded an EC50 of 29 nM.

For `O=C1S/C(=C\c2ccc3c(cnn3[C@H]3CCc4cc(Cl)ccc43)c2)C(=O)N1CCN1CCCC1` [Compound 172, (5Z)-5-({1-[(1S)-5-Chloro-2,3-dihydro-1H-inden-1-yl]-1H-indazol-5-yl}methylidene)-3-(2-pyrrolidin-1-ylethyl)-1,3-thiazolidine-2,4-dione], the EC50 was 300 nM.

In the case of `O=C(O)CN1C(=O)S/C(=C\c2ccc3c(cnn3[C@H]3CCc4cc(Cl)ccc43)c2)C1=O` [Compound 173, [(5Z)-5-({1-[(1S)-5-Chloro-2,3-dihydro-1H-inden-1-yl]-1H-indazol-5-yl}methylidene)-2,4-dioxo-1,3-thiazolidin-3-yl]acetic acid], the EC50 is reported as 70 nM.

`N[C@@H]1CCCC[C@H]1N1C(=O)S/C(=C\c2ccc3c(cnn3Cc3ccc(Cl)cc3C(F)(F)F)c2)C1=O` [Compound 174, (5Z)-3-[(1R,2R)-2-Aminocyclohexyl]-5-({1-[4-chloro-2-(trifluoromethyl)benzyl]-1H-indazol-5-yl}methylidine)-1,3-thiazolidine-2,4-dione] showed an EC50 of 150 nM.

For `CC1(C)CC(N2C(=O)S/C(=C\c3ccc4c(cnn4Cc4ccc(Cl)cc4C(F)(F)F)c3)C2=O)CC(C)(C)N1` [Compound 175, (5Z)-5-({1-[4-Chloro-2-(trifluoromethyl)benzyl]-1H-indazol-5-yl}methylidene)-3-(2,2,6,6-tetramethylpiperidin-4-yl)-1,3-thiazolidine-2,4-dione], the EC50 was 35 nM.

Work on `N[C@H]1CC[C@H](N2C(=O)S/C(=C\c3ccc4c(cnn4Cc4ccc(Cl)cc4C(F)(F)F)c3)C2=O)CC1` [Compound 176, (5Z)-3-(trans-4-Aminocyclohexyl)-5-({1-[4-chloro-2-(trifluoromethyl)benzyl]-1H-indazol-5-yl}methylidene)-1,3-thiazolidine-2,4-dione] yielded an EC50 of 58 nM.

For `COC(=O)CN1C(=O)S/C(=C\c2ccc3c(cnn3[C@@H]3CCc4cc(Cl)ccc43)c2)C1=O` [Compound 177, Methyl [(5Z)-5-({1-[(1R)-5-chloro-2,3-dihydro-1H-inden-1-yl]-1H-indazol-5-yl}methylidene)-2,4-dioxo-1,3-thiazolidin-3-yl]acetate], the EC50 was 6000 nM.

`O=C1S/C(=C\c2ccc3c(cnn3[C@@H]3CCc4cc(Cl)ccc43)c2)C(=O)N1CCN1CCCC1` [Compound 178, (5Z)-5-({1-[(1R)-5-Chloro-2,3-dihydro-1H-inden-1-yl]-1H-indazol-5-yl}methylidene)-3-(2-pyrrolidin-1-ylethyl)-1,3-thiazolidine-2,4-dione] gave an EC50 of 9700 nM.

In the case of `O=C(O)CN1C(=O)S/C(=C\c2ccc3c(cnn3[C@@H]3CCc4cc(Cl)ccc43)c2)C1=O` [Compound 179, [(5Z)-5-({1-[(1R)-5-Chloro-2,3-dihydro-1H-inden-1-yl]-1H-indazol-5-yl}methylidene)-2,4-dioxo-1,3-thiazolidin-3-yl]acetic acid], the EC50 is reported as 3450 nM.

`COC(=O)[C@@H]1C[C@@H](N2C(=O)S/C(=C\c3ccc4c(cnn4Cc4ccc(Cl)cc4C(F)(F)F)c3)C2=O)CN1` [Compound 180, Methyl (4R)-4-[(5Z)-5-({1-[4-chloro-2-(trifluoromethyl)benzyl]-1H-indazol-5-yl}methylidene)-2,4-dioxo-1,3-thiazolidin-3-yl]-L-prolinate] showed an EC50 of 32 nM.

`O=C(O)[C@@H]1C[C@@H](N2C(=O)S/C(=C\c3ccc4c(cnn4Cc4ccc(Cl)cc4C(F)(F)F)c3)C2=O)CN1` [Compound 181, (4R)-4-[(5Z)-5-({1-[4-Chloro-2-(trifluoromethyl)benzyl]-1H-indazol-5-yl}methylidene)-2,4-dioxo-1,3-thiazolidin-3-yl]-L-proline] was tested, and the EC50 was 25 nM.

`O=C1S/C(=C\c2ccc3c(cnn3Cc3ccc(Cl)cc3C(F)(F)F)c2)C(=O)N1C[C@@H]1C[C@@H](O)CN1` [Compound 182, (5Z)-5-({1-[4-Chloro-2-(trifluoromethyl)benzyl]-1H-indazol-5-yl}methylidene)-3-{[(2S,4R)-4-hydroxypyrrolidin-2-yl]methyl}-1,3-thiazolidine-2,4-dione] was tested, and the EC50 was 96 nM.

With `O=C1S/C(=C\c2ccc3c(cnn3Cc3ccc(Cl)cc3C(F)(F)F)c2)C(=O)N1C[C@@H]1CNCCO1` [Compound 183, (5Z)-5-({1-[4-Chloro-2-(trifluoromethyl)benzyl]-1H-indazol-5-yl}methylidine)-3-[(2S)-morpholin-2-ylmethyl]-1,3-thiazolidine-2,4-dione] the EC50 was 170 nM.

In the case of `O=C1S/C(=C\c2ccc3c(cnn3Cc3ccc(Cl)cc3C(F)(F)F)c2)C(=O)N1C[C@@H]1C[C@@H](F)CN1` [Compound 184, (5Z)-5-({1-[4-Chloro-2-(trifluoromethyl)benzyl]-1H-indazol-5-yl}methylidene)-3-{[(2S,4R)-4-fluoropyrrolidin-2-yl]methyl}-1,3-thiazolidine-2,4-dione], the EC50 is reported as 140 nM.

`CS(=O)(=O)NC(=O)CN1C(=O)S/C(=C\c2ccc3c(cnn3Cc3ccc(F)cc3C(F)(F)F)c2)C1=O` [Compound 185, 2-[(5Z)-5-({1-[4-Fluoro-2-(trifluoromethyl)benzyl]-1H-indazol-5-yl}methylidene)-2,4-dioxo-1,3-thiazolidin-3-yl]-N-(methylsulfonyl)acetamide] was tested, and the EC50 was 277 nM.

`O=C1S/C(=C\c2ccc3c(cnn3Cc3ccc(Cl)cc3C(F)(F)F)c2)C(=O)N1C[C@@H]1C[C@@H](O)CN1CCO` [Compound 186, (5Z)-5-({1-[4-Chloro-2-(trifluoromethyl)benzyl]-1H-indazol-5-yl}methylidene)-3-{[(2S,4R)-4-hydroxy-1-(2-hydroxyethyl)pyrrolidin-2-yl]methyl}-1,3-thiazolidine-2,4-dione] was tested, and the EC50 was 54 nM.

For `O=C1S/C(=C\c2ccc3c(cnn3Cc3ccc(Cl)cc3C(F)(F)F)c2)C(=O)N1C[C@@H]1CN(CCO)CCO1` [Compound 187, (5Z)-5-({1-[4-Chloro-2-(trifluoromethyl)benzyl]-1H-indazol-5-yl}methylidene)-3-{[(2S)-4-(2-hydroxyethyl)morpholin-2-yl]methyl}-1,3-thiazolidine-2,4-dione], the EC50 was 27 nM.

In the case of `COCCN1C[C@H](O)C[C@H]1CN1C(=O)S/C(=C\c2ccc3c(cnn3Cc3ccc(Cl)cc3C(F)(F)F)c2)C1=O` [Compound 188, (5Z)-5-({1-[4-Chloro-2-(trifluoromethyl)benzyl]-1H-indazol-5-yl}methylidene)-3-{[(2S,4R)-4-hydroxy-1-(2-methoxyethyl)pyrrolidin-2-yl]methyl}-1,3-thiazolidine-2,4-dione], the EC50 is reported as 60 nM.

`COCCN1CCO[C@H](CN2C(=O)S/C(=C\c3ccc4c(cnn4Cc4ccc(Cl)cc4C(F)(F)F)c3)C2=O)C1` [Compound 189, (5Z)-5-({1-[4-Chloro-2-(trifluoromethyl)benzyl]-1H-indazol-5-yl}methylidene)-3-{[(2S)-4-(2-methoxyethyl)morpholin-2-yl]methyl}-1,3-thiazolidine-2,4-dione] showed an EC50 of 160 nM.

`COCCN1C[C@H](F)C[C@H]1CN1C(=O)S/C(=C\c2ccc3c(cnn3Cc3ccc(Cl)cc3C(F)(F)F)c2)C1=O` [Compound 190, (5Z)-5-({1-[4-Chloro-2-(trifluoromethyl)benzyl]-1H-indazol-5-yl}methylidene)-3-{[(2S,4R)-4-fluoro-1-(2-methoxyethyl)pyrrolidin-2-yl]methyl}-1,3-thiazolidine-2,4-dione] showed an EC50 of 410 nM.

`CN1C[C@H](O)C[C@H]1CN1C(=O)S/C(=C\c2ccc3c(cnn3Cc3ccc(Cl)cc3C(F)(F)F)c2)C1=O` [Compound 191, (5Z)-5-({1-[4-Chloro-2-(trifluoromethyl)benzyl]-1H-indazol-5-yl}methylidene)-3-{[(2S,4R)-4-hydroxy-1-methylpyrrolidin-2-yl]methyl}-1,3-thiazolidine-2,4-dione] was tested, and the EC50 was 19 nM.
